# Assay results reported in US20230033195A1, “METHODS AND COMPOSITIONS FOR IMPROVING COGNITIVE FUNCTION” (THE JOHNS HOPKINS UNIVERSITY, priority 2011, published 2023).
# Like-named read-outs stand apart in the source and are kept apart here.
# What was measured:
# DG/CA3 of aMCI subjects = experiment: fMRI activity during lure stimuli correctly identified as similar, DG/CA3; format: in vivo, human; details: 125 mg twice a day for two weeks
# Description: FIG. 8B depicts the average activity in the left CA3 of aMCI subjects with placebo treatment or levetiracetam treatment (125 mg twice a day for two weeks) during the presentation of lure stimuli that the subject correctly identified as "similar."
# A within-subjects trial of 8 weeks duration, involving 17 amnestic MCI (aMCI) subjects and 17 age-matched controls with a low dose treatment of levetiracetam is conducted. During the course of the study, each aMCI subject receives both drug and placebo treatments separately in two periods of two weeks each, with the order of treatments among different aMCI subjects counterbalanced (see FIG. 7). Age-matched control subjects treated with placebo serve as a further control. Cognitive testing and fMRI imaging data are obtained from the subjects after each two week period of drug/placebo treatment.
# Imaging data are obtained through high-resolution methods developed in the Stark laboratory. Data are collected on a Phillips 3 Tesla scanner (Eindhoven, The Netherlands) equipped with an 8-channel SENSE (Sensitivity Encoding) head coil, located at the F.M. Kirby Research Center for Functional Brain Imaging at the Kennedy Krieger Institute (Baltimore, MD). […]
# Group data are analyzed using a two-way Analysis of Variance (ANOVA) with trial types and group as fixed factors, and subject as a random factor nested within group. […]
# aMCI subjects = experiment: neuropsychological tests outside the scanner; format: in vivo, human; details: 125 mg twice a day for two weeks, vs placebo
# Description: A within-subjects trial of 8 weeks duration, involving 17 amnestic MCI (aMCI) subjects and 17 age-matched controls with a low dose treatment of levetiracetam is conducted. During the course of the study, each aMCI subject receives both drug and placebo treatments separately in two periods of two weeks each, with the order of treatments among different aMCI subjects counterbalanced (see FIG. 7). Age-matched control subjects treated with placebo serve as a further control. Cognitive testing and fMRI imaging data are obtained from the subjects after each two week period of drug/placebo treatment. All participants undergo neuropsychological evaluation at the time of assessment for treatment efficacy (Visits 1 and 2), as well as at the Baseline Visit. The evaluation occurs outside of the scanner and includes the Buschke Selective Reminding Test (Buschke and Fuld, 1974) and the Verbal Paired Associates subtest, the Logical Memory subtest, the Visual Reproduction subtest of the Wechsler Memory Scale-Revised (WMS-R) (Wechsler, 1997), and the Benton Visual Retention Test, as these tasks are particularly sensitive to medial temporal lobe function and early memory problems (Marquis et al., 2002 and Masur et al., 1994). Additionally, subjects are asked to complete tests of more general cognitive function such as tests to assess general mental status, executive function, attention and general naming ability. All neuropsychological tests are administered by a trained research assistant during a 60-minute session. As the three neuropsychological assessments in this study occur within a time period of 8 weeks, different versions of the neuropsychological tests are used to minimize test specific practice effects. Breaks are provided to the subject as needed.
# [1] = cited from earlier work
smiles,measurement,setting,value
"CC[C@@H](C(N)=O)N1CCCC1=O [levetiracetam, (2S)-2-(2-oxopyrrolidin-1-yl) butanamide]",DG/CA3 activity compared with control subjects treated with placebo,DG/CA3 of aMCI subjects,statistically indistinguishable
same,"DG/CA3 activity during successful memory judgments, vs placebo treatment",DG/CA3 of aMCI subjects; p = 0.037,reduces DG/CA3 hyper-activity
same,Benton Visual Rentention Test performance,aMCI subjects,fail to rescue performance
same,Buschke Selective Reminding Test - Delayed Recall performance,aMCI subjects,fail to rescue performance
same,Verbal Paired Associates Test - Delayed Recall performance,aMCI subjects,fail to rescue performance
same,Verbal Paired Associates Test - Recognition performance,aMCI subjects,fail to rescue performance
same,absorption,[1]; after oral administration,rapidly and almost completely absorbed
same,plasma half-life,[1]; expected in elderly due to decreased renal function,9 to 10 h
same,time of peak plasma concentrations,[1]; following oral administration,about 1 hour
same,plasma half-life,[1]; in vivo,approximately 7 ± 1 hour
same,time to steady state,[1]; multiple twice-daily dosing,2 days
same,effect of food on bioavailability,[1]; oral administration,not affected by food
